# According to patent US20070179143A1 (priority 2003, published 2007):
# pEC50: −log10 of the molar value.
# Assays:
# [1] = test system: SK-OV-3; experiment: Cytotoxicity test to cancer cell lines (SRB method), SK-OV-3; format: cell-based; details: Homo sapiens, SK-OV-3, 48 h, read-out: Cytotoxicity ED50 SK-OV-3
# [2] = test system: SK-MEL-2; experiment: Cytotoxicity test to cancer cell lines (SRB method), SK-MEL-2; format: cell-based; details: Homo sapiens, SK-MEL-2, 48 h, read-out: Cytotoxicity ED50 SK-MEL-2
# [3] = test system: A549; experiment: Cytotoxicity test to cancer cell lines (SRB method), A549; details: Homo sapiens, A549, 48 h, read-out: Cytotoxicity ED50 A549
# Description: (§1) Cytotoxicity to A549 (Korea Research Institute of Chemical Technology), SK-OV-3 (Korea Research Institute of Chemical Technology), SK-MEL-2 (Korea Research Institute of Chemical Technology), HCT-15 (Korea Research Institute of Chemical Technology) and MCF7 (Korean Cell Line Bank, Seoul National University School of medicine) cells was measured by Sulforhodamin-B (SRB) method (1989, National Cancer Institute (NCI)) which was developed for the measurement of in vitro anticancer activity of a drug. Cells were separated using 0.25% trypsin-EDTA solution, leading to the preparation of a cell suspension by 5×10^318 2×10^4 cells/well. Then, the suspension was distributed into a 96 well plate by 100 μl/well, which was cultured in a 37° C., 5% CO2 incubator for 24 hours. Compounds prepared in examples of the present invention were used as a sample. Precisely, the compound was dissolved in dimethylsulfoxide and diluted with RPMI 1640 medium before being used as a sample. The final concentration of the sample used varied ranging 1 μM˜0.00001 μM. The medium was removed from the 96 well plate and then diluted sample solution was added by 100 μl/well, followed by further culture in a 37° C., 5% CO2 incubator for 48 hours. Tz (time zero) plate was collected from the point of adding the sample. Upon completing the culture, the medium was removed from each well along with Tz plate, then 10% trichloroacetic acid (TCA) was added by 100 μl/well. The plate was left at 4° C. for 1 hour to let cells be fixed on the floor of the plate. After cells were fixed completely, the plate was washed with water 5-6 times to remove the remaining trichloroacetic acid solution completely and moisture was completely dried at room temperature. 0.4% Sulforhodamine-B was dissolved in 1% acetic acid solution to prepare a staining solution. Cells were stained for 30 minutes with a dye added by 100 μl to each well of the completely dried plate. Then, the plate was washed with 1% acetic acid solution 5-6 times to remove sulforhodamine-B remained uncombined with cells. Then, the plate was dried at room temperature. 10 mM Tris solution was added by 100 μ/well thereto to dissolve the dye, and optical density (OD) was measured at 520 nm with a micro plate reader.
# (§2) ED50 (concentration that inhibits cancer cell growth 50%, 5.0% effective dose, nM/ml) of the sample to cancer cell was calculated as follows. OD value at the point of beginning the culture with the sample was determined as Tz (time zero) value. OD value of a well to be cultured without the sample was determined as a control value (C). OD value of a well pretreated with the sample was determined as experimental value (T). After calculating Tz, C and T, cytotoxicity of the sample was measured by the below <Mathematical Formula 1>. T≦Tz, (T−Tz)/(C−Tz)×100 T>Tz, (T−Tz)/Tz×10,0 <Mathematical Formula 1>
# (§3) ED50, the concentration that can inhibit cancer cell growth by 50%, was calculated by using a regression analysis of lotus program based on the degree of cytotoxicity obtained by the <Mathematical Formula 1>.
# [4] = test system: MCF7; experiment: Cytotoxicity test to cancer cell lines (SRB method), MCF7; details: read-out: Cytotoxicity ED50 MCF-7, MCF-7, 48 hours
# Description: as §1, §2, §3
# [5] = test system: HCT-15; experiment: Cytotoxicity test to cancer cell lines (SRB method), HCT-15; details: Homo sapiens, HCT-15, 48 h, read-out: Cytotoxicity ED50 HCT15
# Description: as §1, §2, §3
SMILES,pEC50 [1],pEC50 [2],pEC50 [3],pEC50 [4],pEC50 [5]
"COc1c(OC(C)C)cc2c(c1OC)-c1ccc(SC)c(=O)cc1[C@@H](NC(=O)c1cccc(CO[N+](=O)[O-])c1)CC2 [Example 3, N-[(7S)-3-isopropoxy-1,2-dimethoxy-10-methylsulfanyl-9-oxo-5,6,7,9-tetrahydro-benzo[a]heptalen-7-yl]-3-nitrooxymethyl-benzamide]",8.40,9.00,8.62,8.64,8.32
"CCOc1cc2c(c(OC)c1OC)-c1ccc(SC)c(=O)cc1[C@@H](NC(=O)c1cccc(CO[N+](=O)[O-])c1)CC2 [Example 4, N-[(7S)-3-ethoxy-1,2-dimethoxy-10-methylsulfanyl-9-oxo-5,6,7,9-tetrahydro-benzo[a]heptalen-7-yl]-3-nitrooxymethyl-benzamide]",11.00,11.00,11.00,11.00,10.52
"COc1cc2c(c(OC)c1OC)-c1ccc(SC)c(=O)cc1[C@@H](NC(=O)c1ccc(CO[N+](=O)[O-])s1)CC2 [Example 6, 5-nitrooxymethyl-thiophene-2-carboxylic acid-[(7S)-1,2,3-trimethoxy-10-methylsulfanyl-9-oxo-5,6,7,9-tetrahydro-benzo[a]heptalen-7-yl]-amide]",9.43,10.10,9.15,9.80,9.57
"COc1c(OC2CCCC2)cc2c(c1OC)-c1ccc(SC)c(=O)cc1[C@@H](NC(=O)c1cccc(CO[N+](=O)[O-])c1)CC2 [Example 7, N-[(7S)-3-cyclopentyloxy-1,2-dimethoxy-10-methylsulfanyl-9-oxo-5,6,7,9-tetrahydro-benzo[a]heptalen-7-yl]-3-nitrooxymethyl-benzamide]",< 7.30,< 7.30,< 7.30,< 7.30,< 7.30
"COc1c(OC(C)C)cc2c(c1OC)-c1ccc(SC)c(=O)cc1[C@@H](NC(=O)c1cccc(CO[N+](=O)[O-])c1F)CC2 [Example 9, 2-fluoro-N-[(7S)-3-isopropoxy-1,2-dimethoxy-10-methylsulfanyl-9-oxo-5,6,7,9-tetrahydro-benzo[a]heptalen-7-yl]-3-nitrooxymethyl-benzamide]",9.47,9.66,9.31,9.89,9.19
"COc1cc2c(c(OC)c1OC)-c1ccc(SC)c(=O)cc1[C@@H](NC(=O)c1cccc(CO[N+](=O)[O-])c1F)CC2 [Example 10, 2-fluoro-3-nitrooxymethyl-N-[(7S)-1,2,3-trimethoxy-10-methylsulfanyl-9-oxo-5,6,7,9-tetrahydro-benzo[a]heptalen-7-yl]-benzamide]",9.64,9.92,9.55,10.05,9.41
"COc1c(OC2CCCC2)cc2c(c1OC)-c1ccc(SC)c(=O)cc1[C@@H](NC(=O)c1cccc(CO[N+](=O)[O-])c1F)CC2 [Example 11, N-[(7S)-3-cyclopentyloxy-1,2-dimethoxy-10-methylsulfanyl-9-oxo-5,6,7,9-tetrahydro-benzo[a]heptalen-7-yl]-2-fluoro-3-nitrooxymethyl-benzamide]",< 7.30,< 7.30,< 7.30,7.41,< 7.30
"CCOc1cc2c(c(OC)c1OC)-c1ccc(SC)c(=O)cc1[C@@H](NC(=O)c1cc(F)cc(CO[N+](=O)[O-])c1)CC2 [Example 13, N-[(7S)-3-ethoxy-1,2-dimethoxy-10-methylsulfanyl-9-oxo-5,6,7,9-tetrahydro-benzo[a]heptalen-7-yl)-3-fluoro-5-nitrooxymethyl-benzamide]",9.74,10.40,9.89,10.70,9.96
"COc1c(OC(C)C)cc2c(c1OC)-c1ccc(SC)c(=O)cc1[C@@H](NC(=O)c1cc(F)cc(CO[N+](=O)[O-])c1)CC2 [Example 14, 3-fluoro-N-[(7S)-3-isopropoxy-1,2-dimethoxy-10-methylsulfanyl-9-oxo-5,6,7,9-tetrahydro-benzo[a]heptalen-7-yl]-5-nitrooxymethyl-benzamide]",7.51,7.48,7.55,7.95,8.00
"COc1c(OC2CCCC2)cc2c(c1OC)-c1ccc(SC)c(=O)cc1[C@@H](NC(=O)c1cc(F)cc(CO[N+](=O)[O-])c1)CC2 [Example 15, N-[(7S)-3-cyclopentyloxy-1,2-dimethoxy-10-methylsulfanyl-9-oxo-5,6,7,9-tetrahydro-benzo[a]heptalen-7-yl]-3-fluoro-5-nitrooxymethyl-benzamide]",< 7.30,7.65,7.52,7.73,7.63
"COc1cc2c(c(OC)c1OC)-c1ccc(SC)c(=O)cc1[C@@H](NC(=O)c1cc(CO[N+](=O)[O-])ccc1F)CC2 [Example 17, 2-fluoro-5-nitrooxymethyl-N-[(7S)-1,2,3-trimethoxy-10-methylsulfanyl-9-oxo-5,6,7,9-tetrahydro-benzo[a]heptalen-7-yl]-benzamide]",9.72,9.77,9.68,10.10,9.72
"COc1cc2c(c(OC)c1OC)-c1ccc(SC)c(=O)cc1[C@@H](NC(=O)c1cc(CO[N+](=O)[O-])cc(CO[N+](=O)[O-])c1)CC2 [Example 19, 3,5-bis-nitrooxymethyl-N-[(7S)-1,2,3-trimethoxy-10-methylsulfanyl-9-oxo-5,6,7,9-tetrahydro-benzo[a]heptalen-7-yl]-benzamide]",7.46,7.51,7.63,8.09,8.00
"COc1cc2c(c(OC)c1OC)-c1ccc(SC)c(=O)cc1[C@@H](NC(=O)c1ccc(CO[N+](=O)[O-])cc1O)CC2 [Example 20, 2-hydroxy-4-nitrooxymethyl-N-[(7S)-1,2,3-trimethoxy-10-methylsulfanyl-9-oxo-5,6,7,9-tetrahydro-benzo[a]heptalen-7-yl]-benzamide]",8.74,8.61,8.41,8.94,8.99
"COc1cc2c(c(OC)c1OC)-c1ccc(SC)c(=O)cc1[C@@H](NC(=O)c1cc(CO[N+](=O)[O-])cs1)CC2 [Example 21, 4-nitrooxymethyl-thiophene-2-carboxylic acid [(7S)-1,2,3-trimethoxy-10-methylsulfanyl-9-oxo-5,6,7,9-tetrahydro-benzo[a]heptalen-7-yl]-amide]",9.23,9.54,9.01,10.00,9.89
"COc1cc2c(c(OC)c1OC)-c1ccc(SC)c(=O)cc1[C@@H](NC(=O)c1sccc1CO[N+](=O)[O-])CC2 [Example 22, 3-nitrooxymethyl-thiophene-2-carboxylic acid [(7S)-1,2,3-trimethoxy-10-methylsulfanyl-9-oxo-5,6,7,9-tetrahydro-benzo[a]heptalen-7-yl]-amide]",8.85,9.06,8.95,9.68,9.02
"COc1cc2c(c(OC)c1OC)-c1ccc(SC)c(=O)cc1[C@@H](NC(=O)Cc1cccc(CO[N+](=O)[O-])c1)CC2 [Example 23, 2-(3-nitrooxymethyl-phenyl)-N-[(7S)-1,2,3-trimethoxy-10-methylsulfanyl-9-oxo-5,6,7,9-tetrahydro-benzo[a]heptalen-7-yl]-acetamide]",8.25,8.46,8.27,8.48,8.47
"COc1cc2c(c(OC)c1OC)-c1ccc(SC)c(=O)cc1[C@@H](NC(=O)c1cccc(COC(=O)CCCO[N+](=O)[O-])c1)CC2 [Example 34, 4-nitrooxybutyric acid-3-[(7S)-1,2,3-trimethoxy-10-methylsulfanyl-9-oxo-5,6,7,9-tetrahydro-benzo[a]heptalen-7-yl-carbamoyl]-benzylester]",11.00,11.00,10.22,11.00,11.00
"COc1cc2c(c(OC)c1OC)-c1ccc(SC)c(=O)cc1[C@@H](NC(=O)c1ccccc1SN=O)CC2 [Example 35, 2-nitrosothio-N-[(7S)-1,2,3-trimethoxy-10-methylsulfanyl-9-oxo-5,6,7,9-tetrahydro-benzo[a]heptalen-7-yl]-benzamide]",< 7.30,7.38,< 7.30,7.61,7.68
"COc1cc2c(c(OC)c1OC)-c1ccc(SC)c(=O)cc1[C@@H](NC(=O)c1cc(F)cc(CON=O)c1)CC2 [Example 37, 3-fluoro-5-nitrosooxymethyl-N-[(7S)-1,2,3-trimethoxy-10-methylsulfanyl-9-oxo-5,6,7,9-tetrahydro-benzo[a]heptalen-7-yl]-benzamide]",7.41,8.03,< 7.30,7.99,8.12
"COc1cc2c(c(OC)c1OC)-c1ccc(SC)c(=O)cc1[C@@H](NC(=O)c1cc(F)cc(CSN=O)c1)CC2 [Example 39, 3-fluoro-5-nitrosothiomethyl-N-[(7S)-1,2,3-trimethoxy-10-methylsulfanyl-9-oxo-5,6,7,9-tetrahydro-benzo[a]heptalen-7-yl]-benzamide]",7.55,< 7.30,7.39,8.30,8.00
